In ChEMBL document CHEMBL3739419, “Influence of Sugar Amine Regiochemistry on Digitoxigenin Neoglycoside Anticancer Activity” (ACS Med Chem Lett, 2015):

What follows are compounds tested on A549 (assay: Anticancer activity against human A549 cells by alamar blue assay).
Type: functional, cell-based

| Structure (SMILES) | IC50 [nM] |
| --- | --- |
| CON([C@H]1CC[C@@]2(C)[C@H](CC[C@@H]3[C@@H]2CC[C@]2(C)[C@@H](C4=CC(=O)OC4)CC[C@]32O)C1)[C@@H]1O[C@H](CO)[C@@H](O)[C@H](N)[C@H]1O | 34 |
| CON([C@H]1CC[C@@]2(C)[C@H](CC[C@@H]3[C@@H]2CC[C@]2(C)[C@@H](C4=CC(=O)OC4)CC[C@]32O)C1)[C@@H]1O[C@H](CO)[C@@H](N)[C@H](O)[C@H]1O | 20 |
| CON([C@H]1CC[C@@]2(C)[C@H](CC[C@@H]3[C@@H]2CC[C@]2(C)[C@@H](C4=CC(=O)OC4)CC[C@]32O)C1)[C@@H]1O[C@H](CO)[C@@H](N=[N+]=[N-])[C@H](O)[C@H]1O | 130 |
| CON([C@H]1CC[C@@]2(C)[C@H](CC[C@@H]3[C@@H]2CC[C@]2(C)[C@@H](C4=CC(=O)OC4)CC[C@]32O)C1)[C@@H]1OC[C@@H](O)[C@H](N=[N+]=[N-])[C@H]1O | 17 |
| CON([C@H]1CC[C@@]2(C)[C@H](CC[C@@H]3[C@@H]2CC[C@]2(C)[C@@H](C4=CC(=O)OC4)CC[C@]32O)C1)[C@@H]1O[C@H](CO)[C@@H](O)[C@H](O)[C@H]1O | 1600 |
| CON([C@H]1CC[C@@]2(C)[C@H](CC[C@@H]3[C@@H]2CC[C@]2(C)[C@@H](C4=CC(=O)OC4)CC[C@]32O)C1)[C@@H]1OC[C@@H](N)[C@H](O)[C@H]1O | 43 |
| CON([C@H]1CC[C@@]2(C)[C@H](CC[C@@H]3[C@@H]2CC[C@]2(C)[C@@H](C4=CC(=O)OC4)CC[C@]32O)C1)[C@@H]1O[C@H](CO)[C@@H](O)[C@H](N=[N+]=[N-])[C@H]1O | 390 |
| CON([C@H]1CC[C@@]2(C)[C@H](CC[C@@H]3[C@@H]2CC[C@]2(C)[C@@H](C4=CC(=O)OC4)CC[C@]32O)C1)[C@@H]1OC[C@@H](O)[C@H](N)[C@H]1O | 10 |
| CON([C@H]1CC[C@@]2(C)[C@H](CC[C@@H]3[C@@H]2CC[C@]2(C)[C@@H](C4=CC(=O)OC4)CC[C@]32O)C1)[C@@H]1OC[C@@H](N=[N+]=[N-])[C@H](O)[C@H]1O | 34 |
